Test results: US7189751B2, “Oxa(thia)zolidine compounds, process for preparation thereof and anti-inflammatory agents” (Nippon Soda Co., Ltd., priority 2001, dated 2007)

How the values were obtained:
[1] = test system: Mouse Delayed Contact Dermatitis Induced by Picryl Chloride; test: Mouse delayed contact dermatitis induced by picryl chloride; format: in vivo
Description: Pharmacological Test Example 3 Mouse Delayed Contact Dermatitis Induced by Picryl Chloride
This pharmacological test was carried out referring to the method of Asherson, G. L. & Ptak, W. (Immunology, 15: 405–416 (1968).) and the method of Jun Hiroi (Folia Pharmacology of Japan, 86: 233–239 (1985).). More specifically, hairs on the abdomen of an ICR-strain male mouse were removed using an electric clipper and an electric shaver. Then, 0.1 mL of 7% ether solution of picryl chloride (Tokyo Kasei Kogyo Co., Ltd., C 0307) was applied onto the abdomen for sensitization. On the sixth day after the sensitization, 20 μL/ear of 1% olive oil solution of picryl chloride was topically applied to the anterior and posterior surfaces of both ears of the mouse to induce contact dermatitis (first induction). Before and 24 hours after the induction, the thicknesses of the particular parts on the both ears were measured three times, respectively, using a digimatic micrometer (Mitsutoyo Co., Ltd.) to work out the average values. Ear edema of the both ears was respectively determined by subtracting the average thickness of the each ear before the induction from that on 24 hours after the induction, so that a grouping was carried out to separate the appropriate individuals. On the fourth day after the first induction, the hairs on the abdomen were removed again, and 0.1 mL of 7% ethanol solution of picryl chloride was applied thereto for additional sensitization. The contact dermatitis for evaluating activity was induced by re-applying 20 μL/ear of 1% olive oil solution of picryl chloride to the anterior and posterior surfaces of both ears (second induction) on the seventh day after the additional sensitization (on the […] after the first sensitization). The activity of each compound of the present invention was evaluated as the inhibition on the contact dermatitis as compared with that of the vehicle applied control. That is, the thicknesses of the particular portions of the both ears were measured respectively three times with a digimatic micrometer to work out the mean values before, 24 hours and 48 hours after the second induction. Ear swelling was determined by subtracting the ear thickness before the second induction from that on 24 hours and 48 hours after the second induction, respectively. Topical application activity was evaluated by applying 25 μL of the acetone solution of the compound of the present invention similarly to the anterior and posterior surfaces of the right ear one hour before and 16 hours after the second induction. As the positive control, 0.02 mg/20 μL of acetone solution of Dexamethasone (hereinafter referred to as DEX, Wako Pure Chemical Industries Ltd., 047-18863) was applied similarly as for the compound of the present invention. With respect to the inhibitory activity in topical application tests, the topical activity was determined by the inhibition of the applied right ear edema, and the translocation and distribution property was determined by the activity onto the swelling of non-treated left ear. Oral administration activity was evaluated by administrating 0.5% methyl cellulose suspension of the compound of the present invention forcibly and perorally to the mouse an hour before and 16 hours after the second induction. As the positive control, 20 mg/kg of Prednisolone (Sigma Chemical Co., P 6004) suspension was administrated similarly as for the compounds of the present invention. […] As the examples, the body weight changes in the mice for 48 hours after the second induction when they were administrated with the compounds shown in Table 5 are shown in Table 6.

[2] = test system: Mouse Delayed Contact Dermatitis Induced by Picryl Chloride; test: as above; format: in vivo; remark: listed apart in the source

Structure (SMILES): C[C@@H]1C[C@H]2[C@@H]3CCC4=CC(=O)C=C[C@]4(C)[C@@]3(F)[C@@H](O)C[C@]2(C)[C@@]1(O)C(=O)CO [DEX, Dexamethasone]
- Change in body weight 48 hours after induction (Mean ± S.E.) ([1]; 0.02 mg/ear × 2, vehicle control −0.45 ± 0.20): -1.42 ± 0.20 g
- Change in body weight 48 hours after induction (Mean ± S.E.) (%) ([1]; 0.02 mg/ear × 2, vehicle control −1.29 ± 0.59): −4.30 ± 0.59%
- intoxicated symptoms ([1]; mice of the picryl chloride dermatitis test): showed intoxicated symptoms
- body weight 48 hours after the second induction ([1]; mice of the picryl chloride dermatitis test, 48 hours after the second induction): reduced significantly
- Ear swelling after 24 hours, Right (Applied) (Mean ± S.E., mm) ([2]; topical 0.02 mg/25 μL/ear × 2, vehicle control 0.299 ± 0.006): 0.057 ± 0.009 mm
- Ear swelling after 24 hours, Left (Not applied) (Mean ± S.E., mm) ([2]; topical 0.02 mg/25 μL/ear × 2 on right ear, vehicle control 0.284 ± 0.008): −0.005 ± 0.033 mm
